Measured values as given in patent US20050031604A1, “Isolation and purification procedure of vasopeptidase peptide inhibitors” (priority 2002, published 2005).
Non-standard residues stand in square brackets, D forms with d. Residues, ends and D or L forms follow the SMILES beside them. pGlu = O=C1CC[C@@H](C(=O)O)N1

How the values were obtained:
[1] = molecular target: T1, C site of the ACE (human angiotensin converting enzyme mutant with only the C-terminal active site functional) (Homo sapiens, UniProt P12821, H390K/H394K); assay: Enzymatic assay of inhibition of the C-site of recombinant ACE; format: biochemical
T1 construct: The two ACE mutants were expressed as full-length proteins; made in house
Experimental: (§1) The wild-type human angiotensin converting enzyme (ACE) and two mutants, containing only one functional active site, were obtained through stable transfection of chinese hamster ovary cells with the ACE encoding cDNA. The two ACE mutants were expressed as full-length proteins, presenting one of the catalytic sites, N- or C-terminal, inactivated by substitution of the zinc binding histidine residues by lysine residues.
(§2) The enzymatic assays were carried out at 25° C. with the substrate Mca-Ala-Ser-Asp-Lys-DpaOH, in a 50 mM Hepes buffer, pH 6.8, containing 200 mM NaCl and 10 μM ZnCl2. The reactions were continuously monitored by determining the raise in fluorescence at 390 nm emission wave length, and excitation at 340 nm, caused by the cleavage of the substrate (S=Km, 40 μM) by ACE, in a fluorimeter Fluorolite 10000 (Dynatech). The bradykinin potentiating peptides (BPPs) (inhibitors, were pre-incubated with the enzyme 90 min before the addition of the substrate.

NEP = NEP (Homo sapiens, UniProt P08473); assay: Inhibition of NEP; format: biochemical
[2] = system: rat arterial blood pressure; assay: Potentiation of the hypotensive effect of bradykinin in rats; format: in vivo; conditions: concentrations of 300 nM
Experimental: The hypotensive potentiating activity effect of bradykinin was tested in normotensive and hypertensive male and female Wistar rats, anesthetized with ethylic ether; a cannulae was introduced in the femoral vein for drug administration and in the femoral artery for blood pressure recording. A Gould polygraph was used coupled to a Statham Gould physiological transducer. The arterial pressure variation values were obtained by integration of the areas delimited by the pressure base line, and by comparing them with the values obtained in the control experiment. Toxin effect tests were carried out in normotensive and hypertensive rats by intra-vital microscopy using the mesenteric circulation. The animals were anesthetized, and their body temperature maintained by a heated plate, while the mesentery was trans-illuminated and observed through lenses coupled to a television camera. The vase diameters of these animals were measured with a micrometric screw. Tested substances were administered by a constant flow peristaltic pump or injected in bolus.
Wistar male rats with a body weight between 180 and 220 g were anesthetized with sodic pentabarbital (Hypnol® Cristalia, 50 mg/kg of body weight, intraperitoneally), while the body temperature was maintained between 36.5° C. and 37° C. by a heated plate. […]

[3] = molecular target: T2, N site of the ACE (human angiotensin converting enzyme mutant with only the N-terminal active site functional) (Homo sapiens, UniProt P12821, H988K/H992K); assay: Enzymatic assay of inhibition of the N-site of recombinant ACE; format: biochemical; conditions: pentapeptide, range stated in words
T2 construct: The two ACE mutants were expressed as full-length proteins; made in house
Experimental: as §1, §2

[4] = system: isolated guinea pig ileum; assay: Potentiation of the contractile activity of bradykinin on isolated guinea pig ileum
Experimental: The potentiating activity of the pools of isolated peptides was tested on the contractile activity of bradykinin on smooth muscle, measured using a preparation of isolated guinea pig ileum. Female guinea pigs with a body weight between 160 and 180 g were used. Before starting the assays, the ileum was kept in TYRODE solution at 37° C. for 30 min. One of the ends of the isolated ileum segment, measuring 1.5 to 2.0 cm, was tied to a semi-ring located at the bottom of a glass container with a capacity of 5 mL, containing the TYRODE physiological solution at 37° C. under constant oxygen bubbling through a capillary. The other extremity of the ileum segment was tied to a previously calibrated registering arm. The tension on the arm was of 1 g, and the ileum contractions were recorded by an REC101 recorder (Pharmacia Biotech).
In order to determine the bradykinin potentiating effect of the samples, a log-dose curve of the effect of bradykinin on the ileum was plotted. Bradykinin activity was determined by measuring the contractions of the isolated guinea pig ileum, and the potentiating activity was expressed as a function of the increase in tissue response to a standard dose of bradykinin.
Pools and fractions were assayed individually and were added 30 seconds before the addition of a simple dose of bradykinin. […]

T1 sequence (P12821 30-1306 H390K/H394K): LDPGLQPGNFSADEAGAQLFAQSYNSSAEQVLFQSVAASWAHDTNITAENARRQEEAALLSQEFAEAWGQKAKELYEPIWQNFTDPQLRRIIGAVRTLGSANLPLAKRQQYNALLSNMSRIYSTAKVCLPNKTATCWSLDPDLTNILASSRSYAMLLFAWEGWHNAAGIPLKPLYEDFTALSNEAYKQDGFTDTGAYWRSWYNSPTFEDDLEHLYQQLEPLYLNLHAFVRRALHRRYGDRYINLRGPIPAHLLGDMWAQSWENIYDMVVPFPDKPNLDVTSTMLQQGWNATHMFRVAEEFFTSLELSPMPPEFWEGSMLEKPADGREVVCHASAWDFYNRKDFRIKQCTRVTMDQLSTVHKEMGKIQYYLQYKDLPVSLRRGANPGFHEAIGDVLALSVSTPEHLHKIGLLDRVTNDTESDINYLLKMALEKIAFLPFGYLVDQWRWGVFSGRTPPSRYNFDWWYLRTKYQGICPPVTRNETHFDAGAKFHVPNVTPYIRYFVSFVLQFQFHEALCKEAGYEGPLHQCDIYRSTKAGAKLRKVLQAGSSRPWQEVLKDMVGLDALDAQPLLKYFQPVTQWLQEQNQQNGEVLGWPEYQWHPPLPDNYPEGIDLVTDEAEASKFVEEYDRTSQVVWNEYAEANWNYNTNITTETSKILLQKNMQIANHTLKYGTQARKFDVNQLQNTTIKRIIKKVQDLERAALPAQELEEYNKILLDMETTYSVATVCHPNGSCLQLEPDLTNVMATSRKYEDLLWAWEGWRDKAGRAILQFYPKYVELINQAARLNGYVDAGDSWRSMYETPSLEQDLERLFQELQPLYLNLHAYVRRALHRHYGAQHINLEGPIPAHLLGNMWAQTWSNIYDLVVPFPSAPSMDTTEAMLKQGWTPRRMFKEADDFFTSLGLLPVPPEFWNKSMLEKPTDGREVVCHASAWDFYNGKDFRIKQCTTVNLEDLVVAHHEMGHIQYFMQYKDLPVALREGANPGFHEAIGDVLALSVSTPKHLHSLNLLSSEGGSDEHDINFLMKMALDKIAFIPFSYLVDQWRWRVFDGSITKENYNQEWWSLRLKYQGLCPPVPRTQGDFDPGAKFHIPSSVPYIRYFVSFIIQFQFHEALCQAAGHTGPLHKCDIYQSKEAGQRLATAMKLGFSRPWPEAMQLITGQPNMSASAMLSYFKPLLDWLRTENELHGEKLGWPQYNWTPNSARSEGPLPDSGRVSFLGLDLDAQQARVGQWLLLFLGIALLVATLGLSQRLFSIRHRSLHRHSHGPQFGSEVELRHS
T2 sequence (P12821 30-1306 H988K/H992K): as the sequence (P12821 30-1306 H390K/H394K) above, with K361H, K365H, H959K, H963K counted along it
NEP, sequence (P08473 whole entry): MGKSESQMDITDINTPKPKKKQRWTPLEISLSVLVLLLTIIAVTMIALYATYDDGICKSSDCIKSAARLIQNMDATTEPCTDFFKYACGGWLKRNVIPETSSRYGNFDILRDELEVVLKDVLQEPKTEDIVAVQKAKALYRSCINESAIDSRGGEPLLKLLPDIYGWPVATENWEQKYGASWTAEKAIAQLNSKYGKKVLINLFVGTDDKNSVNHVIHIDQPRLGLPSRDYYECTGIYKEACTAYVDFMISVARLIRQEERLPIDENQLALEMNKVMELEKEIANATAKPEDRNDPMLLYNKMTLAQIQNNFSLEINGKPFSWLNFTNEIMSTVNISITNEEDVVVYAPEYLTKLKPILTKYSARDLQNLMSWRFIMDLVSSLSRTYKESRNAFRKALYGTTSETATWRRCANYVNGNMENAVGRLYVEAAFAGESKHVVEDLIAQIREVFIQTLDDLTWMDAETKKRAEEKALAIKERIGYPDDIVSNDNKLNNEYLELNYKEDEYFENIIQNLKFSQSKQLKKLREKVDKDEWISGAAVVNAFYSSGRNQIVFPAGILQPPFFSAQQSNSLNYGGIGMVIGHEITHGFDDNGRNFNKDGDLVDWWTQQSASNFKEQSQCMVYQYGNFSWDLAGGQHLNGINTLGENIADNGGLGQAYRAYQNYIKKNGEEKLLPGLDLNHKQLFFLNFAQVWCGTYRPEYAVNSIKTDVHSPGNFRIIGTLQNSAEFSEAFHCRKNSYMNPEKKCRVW

Compound: C[C@H](NC(=O)[C@H](Cc1c[nH]c2ccccc12)NC(=O)[C@H](CCCCN)NC(=O)[C@@H]1CCC(=O)N1)C(=O)N1CCC[C@H]1C(=O)O [<E K W A P, Pyroglutamyl(<E)-Lysine(K)-tryptophane(W)-Alanine(A)-Proline (P)] ([pGlu]KWAP-OH)
- selectivity for the C-site of the ACE ([1]; C site versus N site): not presenting a defined selectivity
- Ki for the C site of the ACE ([1]; pentapeptide, range stated in words): in the μM range
- Ki (NEP): 50 to 150 µM
- increase in the duration of the hypotensive effect compared to bradykinin alone [2]: 5 fold
- potentiation of the hypotensive effect of bradykinin [2]: 60%
- Ki for the N site of the ACE [3]: in the μM range
- concentrations that potentiate the contractile action of bradykinin on isolated guinea pig ileum [4]: 15 to 300 nM
